Tests used:
B.st. spores [1] = assay: Antibiotic detection test in spiked milk, Trizma/succinate culture of Example 7 (Table 5); assay type: cell-based, Bacillus (Geobacillus) Stearothermophilus; details: for 16 hr Result / % Pos (16 hr Result): 16 hours later; for % Pos (Result) / Result: immediately after test completion
Protocol: A Trizma/Succinate solution was prepared by adding 2.5 grams Trizma Base and 6 grams Succinate to 100 mL of reverse osmosis/deionized water (RO/DI Water) in a 125 mL flask. 40 milligrams of BCP (see example 1 for BCP preparation) was then added to a 50 mL conical tube and 25 mL of the Trizma/Succinate solution was added to the 40 milligrams BCP and mixed.
The media was prepared by dissolving 5 grams glucose and 1 gram Mueller Hinton Broth in 100 mL RO/DI Water. 1.2 mL of a 0.01 mg/mL solution of trimethoprim in RO/DI water was added to the media. 20 mL of the BCP/Trizma/Succinate preparation was added to the media and the media was sterile filtered through a 0.45 micron filter and cooled to 4 degrees C.
0.3 grams Difco Bacto-Agar (Item #0140-01), 0.225 NaCl and 17 mL of RO/DI water was combined and mixed and heated the mixture to 95° C. The mixture was removed from the heat and allowed it to cool to 75° C. and then 6 mL media (with BCP/Tris) was added and mixed for 5 minutes. The mixture was cooled to 57° C. and 2 mL spore (concentration of 1 billion cfu/mL) was added and mixed for 5 minutes. 0.200 mL was dispensed into the bottom of each vial.
In test operation 200 microliters of various milk samples, spiked with known concentrations of antibiotics, were pipetted into vials and incubated for the prescribed time (in this test 2 hours 30 minutes) and prescribed temperature (64 degrees C.+/−2 degrees C.). Results were recorded immediately after test completion and 16 hours later. Incubation was in various Charm Inctronic I incubators. Concentrations listed are in parts per billion (ppb). 4 samples were run at each concentration except 16 negative samples were run and 2 samples each for 3 ppb pen G and amoxicillin. Abbreviations are pencillin G (PenG); sulfamethazine (SMZ); sulfadimethoxine (SDM); tylosin (TY); gentamicin (G); oxytetracycline (OT); pirlimycin (Pirl); amoxicillin (Amox); ampicillin (Amp); cloxacillin (Clox); ceftiofur sodium (Ceft); cephaprin (Ceph); tilmicosin (Til); sulfadoxine (SDN); neomycin (Neo).

B.st. spores [2] = assay: Antibiotic detection test in spiked milk, borate/succinate culture of Example 6 (Table 4); assay type: cell-based, Bacillus (Geobacillus) Stearothermophilus; set-up: key to Color 1 / Color 2: Color result 1 and 2 is a negative result; Color result 1 and 2 is a negative result; 3 is a borderline result; 4 and 5 is a positive result; 4 and 5 is a positive result; details: for % Pos (Color 2) / Color 2: after 16 hours at room temperature; for % Pos (Color 1) / Color 1: immediately after test completion
Protocol: BCP/Borate/Succinate Solution was prepared by adding 3.8 grams of Borate and 6 grams Succinate to 100 mL of reverse osmosis/deionized water (RO/DI Water) in 125 mL flask. 50 milligrams of BCP was added to a 50 mL conical tube and 5 mL of Borate/Succinate solution was added to the 50 milligrams BCP and mixed.
To prepare media 5 grams glucose and 1 gram Mueller Hinton Broth was dissolved in 100 mL RO/DI Water. 1.2 mL of a 0.01 mg/mL solution of trimethoprim in RO/DI Water was prepared and added to the media. A 20 mL of BCP/Borate/Succinate was added to the media and the media was sterile filtered through a 0.45 micron filter and then cooled to 4 degrees C.
Agar was prepared by combining 0.3 grams Difco Bacto-Agar (Item #0140-01), 0.225 NaCl and 17.485 RO/DI Water. The mixture was heated to 95° C. and then removed from the heat and allowed to cool to 75° C. Next 6 mL of media (prepared as described above with BCP/Tris) was added to the agar and mixed for 5 minutes. The mixture was cooled to 57° C. and 1 mL spore solution (concentration of 1 billion cfu/mL) was added and mixed together for 5 minutes. 0.200 mL was dispensed into the bottom of each of the vials.
In test operation 200 microliters of various milk sample, spiked with known concentrations of antibiotics, were pipetted into test vials and incubated for the prescribed time (in this test 2 hours 10 minutes) and prescribed temperature (64 degrees C.+/−2 degrees C.). Incubation was in the Charm I Inctronic incubator. Results were recorded immediately after test completion (Color 1) and after being left at room temperature for 16 hours (Color 2). Results listed are in parts per billion (ppb). 4 samples were run at each concentrations except for raw negative milk (16 samples) and 3 ppb pen G (2 samples) and amoxicillin (2 samples). Abbreviations are penicillin G (PenG); sulfamethazine (SMZ); sulfadimethoxine (SDM); tylosin (TY); gentamicin (G); oxytetracycline (OT); pirlimycin (Pirl); amoxicillin (Amox); ampicillin (Amp); cloxacillin (Clox); ceftiofur sodium (Ceft); cephaprin (Ceph); tilmicosin (Til); sulfadoxine (SDN); neomycin (Neo). Color result 1 and 2 is a negative result, 3 is a borderline result and 4 and 5 is a positive result.

Structure (SMILES): CC1(C)S[C@@H]2[C@H](NC(=O)[C@H](N)c3ccc(O)cc3)C(=O)N2[C@H]1C(=O)O [Amox, amoxicillin]
- 16 hr Result (B.st. spores [1]; milk spiked at 6 ppb): Pos
- % Pos (16 hr Result) (B.st. spores [1]; milk spiked at 6 ppb): 100%
- % Pos (Result) (B.st. spores [1]; milk spiked at 6 ppb): 100%
- Result (B.st. spores [1]; milk spiked at 6 ppb): Pos
- % Pos (Color 2) (B.st. spores [2]; milk spiked at 6 ppb): 100%
- Color 2 (B.st. spores [2]; milk spiked at 6 ppb): 5
- % Pos (Color 1) (B.st. spores [2]; milk spiked at 6 ppb): 100%
- Color 1 (B.st. spores [2]; milk spiked at 6 ppb): 5

Structure (SMILES): CC1(C)S[C@@H]2[C@H](NC(=O)[C@H](N)c3ccccc3)C(=O)N2[C@H]1C(=O)O [Amp, ampicillin]
- 16 hr Result (B.st. spores [1]; milk spiked at 5 ppb): Pos
- % Pos (16 hr Result) (B.st. spores [1]; milk spiked at 5 ppb): 100%
- % Pos (Result) (B.st. spores [1]; milk spiked at 5 ppb): 100%
- Result (B.st. spores [1]; milk spiked at 5 ppb): Pos
- % Pos (Color 2) (B.st. spores [2]; milk spiked at 5 ppb): 100%
- Color 2 (B.st. spores [2]; milk spiked at 5 ppb): 4
- % Pos (Color 1) (B.st. spores [2]; milk spiked at 5 ppb): 100%
- Color 1 (B.st. spores [2]; milk spiked at 5 ppb): 5

Structure (SMILES): CO/N=C(\C(=O)N[C@@H]1C(=O)N2C(C(=O)O)=C(CSC(=O)c3ccco3)CS[C@H]12)c1csc(N)n1 [Ceft, ceftiofur sodium]
- 16 hr Result (B.st. spores [1]; milk spiked at 50 ppb): Pos
- % Pos (16 hr Result) (B.st. spores [1]; milk spiked at 50 ppb): 100%
- % Pos (Result) (B.st. spores [1]; milk spiked at 50 ppb): 100%
- Result (B.st. spores [1]; milk spiked at 50 ppb): Pos
- 16 hr Result (B.st. spores [1]; milk spiked at 100 ppb): Pos
- % Pos (16 hr Result) (B.st. spores [1]; milk spiked at 100 ppb): 100%
- % Pos (Result) (B.st. spores [1]; milk spiked at 100 ppb): 100%
- Result (B.st. spores [1]; milk spiked at 100 ppb): Pos
- % Pos (Color 2) (B.st. spores [2]; milk spiked at 50 ppb): 0%
- Color 2 (B.st. spores [2]; milk spiked at 50 ppb): 1
- % Pos (Color 1) (B.st. spores [2]; milk spiked at 50 ppb): 0%
- Color 1 (B.st. spores [2]; milk spiked at 50 ppb): 1
- % Pos (Color 2) (B.st. spores [2]; milk spiked at 100 ppb): 0%
- Color 2 (B.st. spores [2]; milk spiked at 100 ppb): 2
- % Pos (Color 1) (B.st. spores [2]; milk spiked at 100 ppb): 0%
- Color 1 (B.st. spores [2]; milk spiked at 100 ppb): 2

Structure (SMILES): CC(=O)OCC1=C(C(=O)O)N2C(=O)[C@@H](NC(=O)CSc3ccncc3)[C@H]2SC1 [Ceph, cephaprin]
- 16 hr Result (B.st. spores [1]; milk spiked at 10 ppb): Pos
- % Pos (16 hr Result) (B.st. spores [1]; milk spiked at 10 ppb): 100%
- % Pos (Result) (B.st. spores [1]; milk spiked at 10 ppb): 100%
- Result (B.st. spores [1]; milk spiked at 10 ppb): Pos
- % Pos (Color 2) (B.st. spores [2]; milk spiked at 10 ppb): 100%
- Color 2 (B.st. spores [2]; milk spiked at 10 ppb): 5
- % Pos (Color 1) (B.st. spores [2]; milk spiked at 10 ppb): 100%
- Color 1 (B.st. spores [2]; milk spiked at 10 ppb): 5

Structure (SMILES): Cc1onc(-c2ccccc2Cl)c1C(=O)N[C@@H]1C(=O)N2[C@@H]1SC(C)(C)[C@@H]2C(=O)O [Clox, cloxacillin]
- 16 hr Result (B.st. spores [1]; milk spiked at 30 ppb): Pos
- % Pos (16 hr Result) (B.st. spores [1]; milk spiked at 30 ppb): 100%
- % Pos (Result) (B.st. spores [1]; milk spiked at 30 ppb): 100%
- Result (B.st. spores [1]; milk spiked at 30 ppb): Pos
- 16 hr Result (B.st. spores [1]; milk spiked at 50 ppb): Pos
- % Pos (16 hr Result) (B.st. spores [1]; milk spiked at 50 ppb): 100%
- % Pos (Result) (B.st. spores [1]; milk spiked at 50 ppb): 100%
- Result (B.st. spores [1]; milk spiked at 50 ppb): Pos
- % Pos (Color 2) (B.st. spores [2]; milk spiked at 30 ppb): 100%
- Color 2 (B.st. spores [2]; milk spiked at 30 ppb): 5
- % Pos (Color 1) (B.st. spores [2]; milk spiked at 30 ppb): 100%
- Color 1 (B.st. spores [2]; milk spiked at 30 ppb): 4
- % Pos (Color 2) (B.st. spores [2]; milk spiked at 50 ppb): 100%
- Color 2 (B.st. spores [2]; milk spiked at 50 ppb): 5
- % Pos (Color 1) (B.st. spores [2]; milk spiked at 50 ppb): 100%
- Color 1 (B.st. spores [2]; milk spiked at 50 ppb): 5

Structure (SMILES): NC[C@@H]1O[C@H](O[C@H]2[C@@H](O)[C@H](O[C@@H]3[C@@H](O)[C@H](N)C[C@H](N)[C@H]3O[C@H]3O[C@H](CN)[C@@H](O)[C@H](O)[C@H]3N)O[C@@H]2CO)[C@H](N)[C@@H](O)[C@@H]1O [Neo, neomycin]
- 16 hr Result (B.st. spores [1]; milk spiked at 750 ppb): Pos
- % Pos (16 hr Result) (B.st. spores [1]; milk spiked at 750 ppb): 100%
- % Pos (Result) (B.st. spores [1]; milk spiked at 750 ppb): 100%
- Result (B.st. spores [1]; milk spiked at 750 ppb): Pos
- % Pos (Color 2) (B.st. spores [2]; milk spiked at 750 ppb): 100%
- Color 2 (B.st. spores [2]; milk spiked at 750 ppb): 5
- % Pos (Color 1) (B.st. spores [2]; milk spiked at 750 ppb): 100%
- Color 1 (B.st. spores [2]; milk spiked at 750 ppb): 5

Structure (SMILES): CC[C@@H]1CCN[C@H](C(=O)N[C@@H]([C@H]2O[C@H](SC)[C@H](O)[C@@H](O)[C@H]2O)[C@H](C)Cl)C1 [Pirl, pirlimycin]
- 16 hr Result (B.st. spores [1]; milk spiked at 100 ppb): Pos
- % Pos (16 hr Result) (B.st. spores [1]; milk spiked at 100 ppb): 100%
- % Pos (Result) (B.st. spores [1]; milk spiked at 100 ppb): 100%
- Result (B.st. spores [1]; milk spiked at 100 ppb): Pos
- 16 hr Result (B.st. spores [1]; milk spiked at 200 ppb): Pos
- % Pos (16 hr Result) (B.st. spores [1]; milk spiked at 200 ppb): 100%
- % Pos (Result) (B.st. spores [1]; milk spiked at 200 ppb): 100%
- Result (B.st. spores [1]; milk spiked at 200 ppb): Pos
- % Pos (Color 2) (B.st. spores [2]; milk spiked at 100 ppb): 100%
- Color 2 (B.st. spores [2]; milk spiked at 100 ppb): 4
- % Pos (Color 1) (B.st. spores [2]; milk spiked at 100 ppb): 100%
- Color 1 (B.st. spores [2]; milk spiked at 100 ppb): 4
- % Pos (Color 2) (B.st. spores [2]; milk spiked at 200 ppb): 100%
- Color 2 (B.st. spores [2]; milk spiked at 200 ppb): 5
- % Pos (Color 1) (B.st. spores [2]; milk spiked at 200 ppb): 100%
- Color 1 (B.st. spores [2]; milk spiked at 200 ppb): 5

Structure (SMILES): COc1ncnc(NS(=O)(=O)c2ccc(N)cc2)c1OC [SDN, sulfadoxine]
- 16 hr Result (B.st. spores [1]; milk spiked at 100 ppb): Pos
- % Pos (16 hr Result) (B.st. spores [1]; milk spiked at 100 ppb): 100%
- % Pos (Result) (B.st. spores [1]; milk spiked at 100 ppb): 100%
- Result (B.st. spores [1]; milk spiked at 100 ppb): Pos
- % Pos (Color 2) (B.st. spores [2]; milk spiked at 100 ppb): 100%
- Color 2 (B.st. spores [2]; milk spiked at 100 ppb): 4
- % Pos (Color 1) (B.st. spores [2]; milk spiked at 100 ppb): 100%
- Color 1 (B.st. spores [2]; milk spiked at 100 ppb): 5

Structure (SMILES): CC[C@H]1OC(=O)C[C@@H](O)[C@H](C)[C@@H](O[C@@H]2O[C@H](C)[C@@H](O)[C@H](N(C)C)[C@H]2O)[C@@H](CCN2C[C@H](C)C[C@H](C)C2)C[C@@H](C)C(=O)/C=C/C(C)=C/[C@@H]1CO[C@@H]1O[C@H](C)[C@@H](O)[C@@H](OC)[C@H]1OC [Til, tilmicosin]
- 16 hr Result (B.st. spores [1]; milk spiked at 80 ppb): Pos
- % Pos (16 hr Result) (B.st. spores [1]; milk spiked at 80 ppb): 100%
- % Pos (Result) (B.st. spores [1]; milk spiked at 80 ppb): 100%
- Result (B.st. spores [1]; milk spiked at 80 ppb): Pos
- % Pos (Color 2) (B.st. spores [2]; milk spiked at 80 ppb): 100%
- Color 2 (B.st. spores [2]; milk spiked at 80 ppb): 5
- % Pos (Color 1) (B.st. spores [2]; milk spiked at 80 ppb): 100%
- Color 1 (B.st. spores [2]; milk spiked at 80 ppb): 5
